Data: paper PMC5218480 (PLoS ONE, 2017)

Tested on: MV-4-11 cells
Test: Gene expression microarray analysis (Affymetrix PrimeView) and GSEA
Type: cell-based, human
Design: RFU PODN (11730768_x_at) / Fold change /veh PODN (11730768_x_at) / RFU LINC00158 (11744669_a_at) / Fold change /veh LINC00158 (11744669_a_at) / RFU DUSP10 (11751237_a_at) / Fold change /veh DUSP10 (11751237_a_at) / RFU ID3 (11757404_x_at) / Fold change /veh ID3 (11757404_x_at) / RFU PLEKHG5 (11737974_s_at) / Fold change /veh PLEKHG5 (11737974_s_at) / RFU LRRC4B (11730491_at) / Fold change /veh LRRC4B (11730491_at) / RFU GIMAP4 (11747438_a_at) / Fold change /veh GIMAP4 (11747438_a_at) / RFU KRT8 (11758183_x_at) / Fold change /veh KRT8 (11758183_x_at) / RFU CNN1 (11734310_a_at) / Fold change /veh CNN1 (11734310_a_at) / RFU VPS37D (11726825_at) / Fold change /veh VPS37D (11726825_at) / RFU C10orf10 (11716522_x_at) / Fold change /veh C10orf10 (11716522_x_at) / RFU KIR2DL2 /// KIR2DL4 /// KIR2DL5A /// KIR2DL5B /// KIR2DS1 /// KIR2DS2 /// KIR2DS3 /// KIR2DS4 /// KIR3DL3 /// KIR3DL3 /// KIR3DS1 (11738374_at) / Fold change /veh KIR2DL2 /// KIR2DL4 /// KIR2DL5A /// KIR2DL5B /// KIR2DS1 /// KIR2DS2 /// KIR2DS3 /// KIR2DS4 /// KIR3DL3 /// KIR3DL3 /// KIR3DS1 (11738374_at) / RFU C1QL1 (11718748_at) / Fold change /veh C1QL1 (11718748_at) / RFU TMPRSS4 (11747572_a_at) / Fold change /veh TMPRSS4 (11747572_a_at) / RFU HAMP (11756126_x_at) / Fold change /veh HAMP (11756126_x_at) / RFU RNFT2 (11725882_a_at) / Fold change /veh RNFT2 (11725882_a_at) / RFU NR4A2 (11747474_a_at) / Fold change /veh NR4A2 (11747474_a_at) / RFU ABCC12 (11746883_a_at) / Fold change /veh ABCC12 (11746883_a_at) / RFU TMEM136 (11760407_x_at) / Fold change /veh TMEM136 (11760407_x_at) / RFU CLDN22 /// WWC2 (11732394_at) / Fold change /veh CLDN22 /// WWC2 (11732394_at) / RFU HLA-DPB1 (11760878_x_at) / Fold change /veh HLA-DPB1 (11760878_x_at) / RFU SPINT1 (11716480_a_at) / Fold change /veh SPINT1 (11716480_a_at) / RFU GAP43 (11754022_s_at) / Fold change /veh GAP43 (11754022_s_at) / RFU A4GNT (11735810_at) / Fold change /veh A4GNT (11735810_at) / RFU PRB3 (11715151_x_at) / Fold change /veh PRB3 (11715151_x_at) / RFU TUBB4B (11761932_at) / Fold change /veh TUBB4B (11761932_at) / RFU CAPN14 (11732068_a_at) / Fold change /veh CAPN14 (11732068_a_at) / RFU TMCC2 (11721928_a_at) / Fold change /veh TMCC2 (11721928_a_at) / RFU IRGQ (11745062_a_at) / Fold change /veh IRGQ (11745062_a_at) / RFU FAM174B (11720279_a_at) / Fold change /veh FAM174B (11720279_a_at) / RFU TMPRSS4 (11748680_a_at) / Fold change /veh TMPRSS4 (11748680_a_at) / RFU FAM212B (11763350_a_at) / Fold change /veh FAM212B (11763350_a_at) / RFU PLEKHG5 (11743358_a_at) / Fold change /veh PLEKHG5 (11743358_a_at) / RFU ZSCAN30 (11745921_a_at) / Fold change /veh ZSCAN30 (11745921_a_at) / RFU CMKLR1 (11741424_a_at) / Fold change /veh CMKLR1 (11741424_a_at) / RFU LOC101060620 /// MAPK8IP1 (11723275_at) / Fold change /veh LOC101060620 /// MAPK8IP1 (11723275_at) / RFU SPTSSB (11747773_x_at) / Fold change /veh SPTSSB (11747773_x_at) / RFU PRSS12 (11739890_at) / Fold change /veh PRSS12 (11739890_at) / RFU BIN1 (11741810_x_at) / Fold change /veh BIN1 (11741810_x_at) / RFU WNT11 (11732464_a_at) / Fold change /veh WNT11 (11732464_a_at) / RFU C10orf10 (11716521_a_at) / Fold change /veh C10orf10 (11716521_a_at) / RFU C5orf56 (11738089_at) / Fold change /veh C5orf56 (11738089_at) / RFU CYB561 (11721691_x_at) / Fold change /veh CYB561 (11721691_x_at) / RFU ANKRD19P (11752326_a_at) / Fold change /veh ANKRD19P (11752326_a_at) / RFU OR2T12 /// OR2T33 /// OR2T8 (11738714_s_at) / Fold change /veh OR2T12 /// OR2T33 /// OR2T8 (11738714_s_at) / RFU VCAN (11748164_a_at) / Fold change /veh VCAN (11748164_a_at) / RFU JSRP1 (11732532_at) / Fold change /veh JSRP1 (11732532_at) / RFU KRTAP10-11 (11738290_x_at) / Fold change /veh KRTAP10-11 (11738290_x_at) / RFU MYO3A (11730013_a_at) / Fold change /veh MYO3A (11730013_a_at) / RFU EBF3 (11725865_a_at) / Fold change /veh EBF3 (11725865_a_at) / RFU CAMK2N1 (11719241_x_at) / Fold change /veh CAMK2N1 (11719241_x_at) / RFU C5orf56 (11738088_a_at) / Fold change /veh C5orf56 (11738088_a_at) / RFU OLFML3 (11715873_a_at) / Fold change /veh OLFML3 (11715873_a_at) / RFU LOC100653217 /// NTM (11731650_a_at) / Fold change /veh LOC100653217 /// NTM (11731650_a_at) / RFU MAPK11 (11762145_a_at) / Fold change /veh MAPK11 (11762145_a_at) / RFU FIZ1 (11724087_x_at) / Fold change /veh FIZ1 (11724087_x_at) / RFU OASL (11726364_x_at) / Fold change /veh OASL (11726364_x_at) / RFU SOX15 (11748057_x_at) / Fold change /veh SOX15 (11748057_x_at) / RFU CD79A (11719716_a_at) / Fold change /veh CD79A (11719716_a_at) / RFU HIST1H1D (11736915_at) / Fold change /veh HIST1H1D (11736915_at) / RFU CASKIN2 (11723855_a_at) / Fold change /veh CASKIN2 (11723855_a_at) / RFU LOC730098 (11760151_x_at) / Fold change /veh LOC730098 (11760151_x_at) / RFU OR4N2 (11742367_at) / Fold change /veh OR4N2 (11742367_at) / RFU PRRT2 (11749266_a_at) / Fold change /veh PRRT2 (11749266_a_at) / RFU SNX32 (11753110_a_at) / Fold change /veh SNX32 (11753110_a_at) / RFU CDHR5 (11726645_a_at) / Fold change /veh CDHR5 (11726645_a_at) / RFU RCAN1 (11760418_a_at) / Fold change /veh RCAN1 (11760418_a_at) / RFU FAM167A (11723789_a_at) / Fold change /veh FAM167A (11723789_a_at) / RFU FAM26E (11764081_at) / Fold change /veh FAM26E (11764081_at) / RFU ISYNA1 (11749810_s_at) / Fold change /veh ISYNA1 (11749810_s_at) / RFU ACY1 (11761880_at) / Fold change /veh ACY1 (11761880_at) / RFU 11764098_at / Fold change /veh 11764098_at / RFU SAMD14 (11745864_x_at) / Fold change /veh SAMD14 (11745864_x_at) / RFU NPB (11741838_a_at) / Fold change /veh NPB (11741838_a_at) / RFU TMPRSS6 (11731388_a_at) / Fold change /veh TMPRSS6 (11731388_a_at) / RFU KRTAP10-2 (11738614_at) / Fold change /veh KRTAP10-2 (11738614_at) / RFU ARHGAP8 /// PRR5-ARHGAP8 (11727945_x_at) / Fold change /veh ARHGAP8 /// PRR5-ARHGAP8 (11727945_x_at) / RFU KRTAP5-7 /// NADSYN1 (11734609_at) / Fold change /veh KRTAP5-7 /// NADSYN1 (11734609_at) / RFU RASL12 (11751679_a_at) / Fold change /veh RASL12 (11751679_a_at) / RFU CDKN2B (11736163_a_at) / Fold change /veh CDKN2B (11736163_a_at) / RFU PRF1 (11729649_at) / Fold change /veh PRF1 (11729649_at) / RFU, ZNF638 /// ZNF638-IT1 / Fold change vs veh, ZNF638 /// ZNF638-IT1 / RFU, PANK3 / Fold change vs veh, PANK3 / RFU, SH3YL1 / Fold change vs veh, SH3YL1 / RFU, ZEB2 / Fold change vs veh, ZEB2 / RFU, NRIP1 / Fold change vs veh, NRIP1 / RFU, PTTG1IP / Fold change vs veh, PTTG1IP / RFU, CAPN2 / Fold change vs veh, CAPN2 / RFU, MED14 / Fold change vs veh, MED14 / RFU, SNORA58 / Fold change vs veh, SNORA58 / RFU, C1orf63 / Fold change vs veh, C1orf63 / RFU, LRRFIP1 / Fold change vs veh, LRRFIP1 / RFU, NDUFAF7 / Fold change vs veh, NDUFAF7 / RFU, SLC12A2 / Fold change vs veh, SLC12A2 / RFU, IBTK / Fold change vs veh, IBTK / RFU, ESF1 / Fold change vs veh, ESF1 / Fold change vs veh, TMEM50B / RFU, TAOK1 / Fold change vs veh, TAOK1 / RFU, ACBD3 / Fold change vs veh, ACBD3 / RFU, TMA16 / Fold change vs veh, TMA16 / RFU, RWDD3 / Fold change vs veh, RWDD3 / RFU, BCAT1 / Fold change vs veh, BCAT1 / RFU, EDEM3 / Fold change vs veh, EDEM3 / RFU, TMEM33 / Fold change vs veh, TMEM33 / RFU, WDR75 / Fold change vs veh, WDR75 / RFU, AHCTF1 / Fold change vs veh, AHCTF1 / RFU, TFRC / Fold change vs veh, TFRC / RFU, ZDHHC17 / Fold change vs veh, ZDHHC17 / RFU, NOM1 / Fold change vs veh, NOM1 / RFU, ARL8B / Fold change vs veh, ARL8B / RFU, ZBTB11 / Fold change vs veh, ZBTB11 / RFU, TAMM41 / Fold change vs veh, TAMM41 / RFU, KIAA1704 /// LOC100996395 / Fold change vs veh, KIAA1704 /// LOC100996395 / RFU, ING1 / Fold change vs veh, ING1 / RFU, TRMT61B / Fold change vs veh, TRMT61B / RFU, FUBP3 / Fold change vs veh, FUBP3 / RFU, TP53 / Fold change vs veh, TP53 / RFU, TNKS2 / Fold change vs veh, TNKS2 / RFU, ZFP14 / Fold change vs veh, ZFP14 / RFU, ACTR2 / Fold change vs veh, ACTR2 / RFU, PPP3R1 / Fold change vs veh, PPP3R1 / RFU, PIK3R1 / Fold change vs veh, PIK3R1 / RFU, HNRNPA1 / Fold change vs veh, HNRNPA1 / RFU, RNF170 / Fold change vs veh, RNF170 / RFU, ZNF28 / Fold change vs veh, ZNF28 / RFU, RNGTT / Fold change vs veh, RNGTT / RFU, OGT / Fold change vs veh, OGT / RFU, BRD1 / Fold change vs veh, BRD1 / RFU, MARS / Fold change vs veh, MARS / RFU, ZNF655 / Fold change vs veh, ZNF655 / RFU, FAHD1 / Fold change vs veh, FAHD1 / RFU, BDP1 / Fold change vs veh, BDP1 / RFU, LRRCC1 / Fold change vs veh, LRRCC1 / RFU, ARID1A / Fold change vs veh, ARID1A / RFU, ZNF146 / Fold change vs veh, ZNF146 / RFU, ZNF330 / Fold change vs veh, ZNF330 / RFU, GPN3 / Fold change vs veh, GPN3 / RFU, C9orf123 / Fold change vs veh, C9orf123 / RFU, N4BP2L2 / Fold change vs veh, N4BP2L2 / RFU, ARFIP1 / Fold change vs veh, ARFIP1 / RFU, FAM179B / Fold change vs veh, FAM179B / RFU, BCL10 / Fold change vs veh, BCL10 / RFU, UHRF1BP1L / Fold change vs veh, UHRF1BP1L / RFU, BET1 / Fold change vs veh, BET1 / RFU, CNOT2 / Fold change vs veh, CNOT2 / RFU, ZNF268 / Fold change vs veh, ZNF268 / Fold change vs veh, ZNF507 / RFU, DGCR2 / Fold change vs veh, DGCR2 / RFU, WDSUB1 / Fold change vs veh, WDSUB1 / Fold change vs veh, HSP90B1 /// MIR3652 / RFU, ADSS / Fold change vs veh, ADSS / RFU, GK / Fold change vs veh, GK / RFU, ZNF148 / Fold change vs veh, ZNF148 / RFU, TAF9 / Fold change vs veh, TAF9 / RFU, SLC1A5 / Fold change vs veh, SLC1A5 / RFU, SLMO2 / Fold change vs veh, SLMO2 / RFU, ABCC4 / Fold change vs veh, ABCC4 / RFU, LOC101060439 /// RAP1B / Fold change vs veh, LOC101060439 /// RAP1B / RFU, RFX7 / Fold change vs veh, RFX7 / RFU, GTPBP10 / Fold change vs veh, GTPBP10 / RFU, CNEP1R1 / Fold change vs veh, CNEP1R1 / RFU, BIVM-ERCC5 /// ERCC5 / Fold change vs veh, BIVM-ERCC5 /// ERCC5 / RFU, ILF3 / Fold change vs veh, ILF3 / RFU 11762660_at / Fold change /veh 11762660_at / RFU VCAN (11757783_s_at) / Fold change /veh VCAN (11757783_s_at) / RFU DDX43 (11728927_at) / Fold change /veh DDX43 (11728927_at) / RFU KRT8 (11758188_x_at) / Fold change /veh KRT8 (11758188_x_at) / RFU NKD1 (11759106_at) / Fold change /veh NKD1 (11759106_at) / RFU SRD5A1 (11742802_a_at) / Fold change /veh SRD5A1 (11742802_a_at) / RFU TPSAB1 /// TPSB2 (11721975_s_at) / Fold change /veh TPSAB1 /// TPSB2 (11721975_s_at) / RFU GSTM3 (11746129_a_at) / Fold change /veh GSTM3 (11746129_a_at) / RFU IL23R (11737362_x_at) / Fold change /veh IL23R (11737362_x_at) / RFU TMEM51 (11727254_a_at) / Fold change /veh TMEM51 (11727254_a_at) / RFU PIWIL2 (11732686_x_at) / Fold change /veh PIWIL2 (11732686_x_at) / RFU ORM1 (11744905_x_at) / Fold change /veh ORM1 (11744905_x_at) / RFU CCDC152 (11743942_at) / Fold change /veh CCDC152 (11743942_at) / RFU ECM1 (11717891_a_at) / Fold change /veh ECM1 (11717891_a_at) / RFU IL23R (11748794_a_at) / Fold change /veh IL23R (11748794_a_at) / RFU TNFAIP8L3 (11732012_x_at) / Fold change /veh TNFAIP8L3 (11732012_x_at) / RFU MBOAT4 (11741988_at) / Fold change /veh MBOAT4 (11741988_at) / RFU 11764193_at / Fold change /veh 11764193_at / RFU TMEM53 (11763286_at) / Fold change /veh TMEM53 (11763286_at) / RFU MAGEB2 (11727129_at) / Fold change /veh MAGEB2 (11727129_at) / RFU TMEM200A (11744735_a_at) / Fold change /veh TMEM200A (11744735_a_at) / RFU CCDC152 (11751479_a_at) / Fold change /veh CCDC152 (11751479_a_at) / RFU FAM211A (11726209_a_at) / Fold change /veh FAM211A (11726209_a_at) / RFU RGS16 (11746705_a_at) / Fold change /veh RGS16 (11746705_a_at) / RFU VCAN (11755009_s_at) / Fold change /veh VCAN (11755009_s_at) / RFU RHOB (11743442_s_at) / Fold change /veh RHOB (11743442_s_at) / RFU RGS16 (11720943_a_at) / Fold change /veh RGS16 (11720943_a_at) / RFU RGS16 (11720944_at) / Fold change /veh RGS16 (11720944_at) / RFU, VPS4B / Fold change vs veh, VPS4B / RFU, CREB1 / Fold change vs veh, CREB1 / RFU, DNAJC13 / Fold change vs veh, DNAJC13 / RFU, GNAQ / Fold change vs veh, GNAQ / RFU, CDK5R1 / Fold change vs veh, CDK5R1 / RFU, ZRANB3 / Fold change vs veh, ZRANB3 / RFU, CUL4A / Fold change vs veh, CUL4A / RFU, CCNY / Fold change vs veh, CCNY / RFU, UFL1 / Fold change vs veh, UFL1 / RFU, COG3 / Fold change vs veh, COG3 / RFU, DIAPH2 / Fold change vs veh, DIAPH2 / RFU, SKA2 / Fold change vs veh, SKA2 / RFU, AFF3 / Fold change vs veh, AFF3 / RFU, LMF1 / Fold change vs veh, LMF1 / RFU, IPO11 / Fold change vs veh, IPO11 / RFU, DFFB / Fold change vs veh, DFFB / RFU, FOXP1 / Fold change vs veh, FOXP1 / RFU, CARD8 / Fold change vs veh, CARD8 / RFU, STRN3 / Fold change vs veh, STRN3 / RFU, ADK / Fold change vs veh, ADK / RFU, RASSF2 / Fold change vs veh, RASSF2 / RFU, WIPF1 / Fold change vs veh, WIPF1 / RFU, LARP1B / Fold change vs veh, LARP1B / RFU, RASA1 / Fold change vs veh, RASA1 / RFU, RB1 / Fold change vs veh, RB1 / RFU, PPFIA1 / Fold change vs veh, PPFIA1 / RFU, MAT2A / Fold change vs veh, MAT2A / RFU, CCT5 / Fold change vs veh, CCT5 / RFU, WDR92 / Fold change vs veh, WDR92 / RFU, CUX1 / Fold change vs veh, CUX1 / RFU, TTC7A / Fold change vs veh, TTC7A / RFU, TMEM135 / Fold change vs veh, TMEM135 / RFU, DEPTOR / Fold change vs veh, DEPTOR / RFU, CPM / Fold change vs veh, CPM / RFU, DNAJB6 / Fold change vs veh, DNAJB6 / RFU, CACNA2D3 / Fold change vs veh, CACNA2D3 / RFU, DTX4 / Fold change vs veh, DTX4 / RFU, TFCP2 / Fold change vs veh, TFCP2 / RFU, GMCL1 /// GMCL1P1 / Fold change vs veh, GMCL1 /// GMCL1P1 / RFU, AEBP2 / Fold change vs veh, AEBP2 / RFU, SNHG1 /// SNORD22 /// SNORD25 /// SNORD26 /// SNORD27 /// SNORD28 /// SNORD29 /// SNORD31 / Fold change vs veh, SNHG1 /// SNORD22 /// SNORD25 /// SNORD26 /// SNORD27 /// SNORD28 /// SNORD29 /// SNORD31 / Fold change (Aza/veh), C12orf56 (ProbeSet 11735607_a_at) / Fold change (ACY-1035/veh), C12orf56 (ProbeSet 11735607_a_at) / Fold change (Aza/veh), FGFR1OP (ProbeSet 11751329_s_at) / Fold change (ACY-1035/veh), FGFR1OP (ProbeSet 11751329_s_at) / Fold change (Aza/veh), VPS36 (ProbeSet 11739960_a_at) / Fold change (ACY-1035/veh), VPS36 (ProbeSet 11739960_a_at) / RFU SYPL1 (11715823_x_at) / Fold change /veh SYPL1 (11715823_x_at) / RFU IGFBP7 (11715501_s_at) / Fold change /veh IGFBP7 (11715501_s_at) / RFU REEP3 (11722064_at) / Fold change /veh REEP3 (11722064_at) / RFU IGLL1 (11728026_x_at) / Fold change /veh IGLL1 (11728026_x_at): dose or concentration left out as unconfirmed
Conditions: ProbeSet 11732306_x_at; LIST D

Question: With Nc1ncn([C@@H]2O[C@H](CO)[C@@H](O)[C@H]2O)c(=O)n1 [azacitidine] as the compound, how does the “Fold change vs veh, CREB1” value read?
Answer: Its value is 0.82.
